Laboratory results published in ChEMBL document CHEMBL4422617, “Recent advances in the discovery of small molecules targeting glioblastoma” (Eur J Med Chem, 2019).
In brackets after ≈: the same amount, converted by molar mass.

Key:
U-87 MG [1] = assay: Antiproliferative activity against human U87 cells after 48 hrs by MTT assay; assay type: functional, U-87MG ATCC
U-251 [2] = assay: Antiproliferative activity against human U251 cells assessed as reduction in cell viability after 72 hrs by AlamarBlue assay; assay type: functional, cell-based; details: U-251, 72 h
U-87 MG [3] = assay: Antiproliferative activity against human U87 cells assessed as reduction in cell viability after 72 hrs by AlamarBlue assay; assay type: functional, cell-based, U-87MG ATCC
U-87 MG [4] = assay: Antiproliferative activity against human U87 cells over-expressing EGFRvIII assessed as reduction in cell viability after 72 hrs by AlamarBlue assay; assay type: functional, cell-based, U-87MG ATCC
U-87 MG [5] = assay: Antiproliferative activity against human U87MG cells after 5 days by CyQuantGR dye-based fluorescence assay; assay type: functional, cell-based, U-87MG ATCC; details: 120 h
[6] = Half life in […] mouse at 25 micromol/kg, ip administered as single dose by mass spectrometric analysis; assay type: ADME, organism-based; details: in vivo, 25 µmol/kg
U-118-MG = assay: Antiproliferative activity against human U118MG cells after 5 days by CyQuantGR dye-based fluorescence assay; assay type: functional, cell-based; details: 120 h
U-251 [7] = assay: Antiproliferative activity against human U251 cells after 5 days by CyQuantGR dye-based fluorescence assay; assay type: functional, cell-based; details: U-251, 120 h
[8] = Cmax in […] mouse at 25 micromol/kg, ip administered as single dose by mass spectrometric analysis; assay type: ADME, organism-based; parameters: route intraperitoneal; details: in vivo, 25 µmol/kg
T98G [9] = assay: Antiproliferative activity against human T98G cells after 5 days by CyQuantGR dye-based fluorescence assay; assay type: functional, cell-based; details: 120 h
[10] = Tmax in […] mouse at 25 micromol/kg, ip administered as single dose by mass spectrometric analysis; assay type: ADME, organism-based; details: in vivo, 25 µmol/kg
U-251 [11] = assay: Antiproliferative activity against human U251 cells by MTT assay; assay type: functional, cell-based
[12] = Cytotoxicity against human GBM6 cells after 72 hrs by MTS assay; assay type: functional; details: GBM6, 72 h, read-out: ED50 (the source's name)
U-87 MG [13] = assay: Antiproliferative activity against human U87 cells after 5 days by AlamarBlue assay; assay type: functional, cell-based, U-87MG ATCC; details: 120 h
[14] = Antiproliferative activity against human U373 cells after 5 days by AlamarBlue assay; assay type: functional, cell-based, U-373MG ATCC; details: U373 MG, 120 h
LN-229 = assay: Antiproliferative activity against human LN229 cells after 5 days by AlamarBlue assay; assay type: functional, cell-based; details: LN-229, 120 h
T98G [15] = assay: Antiproliferative activity against human T98G cells after 5 days by AlamarBlue assay; assay type: functional, cell-based; details: 120 h
U138-MG = assay: Antiproliferative activity against human U138MG cells after 5 days by AlamarBlue assay; assay type: functional, cell-based; details: 120 h
[16] = Antiproliferative activity against human M059K cells after 48 hrs by WST-1 assay; assay type: functional, cell-based
U-87 MG [17] = assay: Antiproliferative activity against human U87MG cells after 24 hrs by WST-1 assay; assay type: functional, cell-based, U-87MG ATCC
U-87 MG [18] = assay: Antiproliferative activity against human U87MG cells after 72 hrs by MTT assay; assay type: functional, cell-based, U-87MG ATCC
SF-295 [19] = assay: Antiproliferative activity against human SF295 cells after 72 hrs by MTT assay; assay type: functional, cell-based; details: SF-295, 72 h
C6 = assay: Antiproliferative activity against rat C6 cells at 50 uM after 24 hrs by MTT assay relative to control; assay type: functional
SNB-19 = assay: Antiproliferative activity against human SNB19 cells after 72 hrs by WST-1 assay; assay type: functional, cell-based; details: SNB-19, 72 h
SF-295 [20] = assay: Cytotoxicity against human SF295 cells after 72 hrs by MTT assay; assay type: functional, cell-based; details: SF-295, 72 h
PBMC = assay: Cytotoxicity against human PBMC after 72 hrs by MTT assay; assay type: cell-based
U-251 [21] = assay: Antitumor activity against human U251 cells xenografted in CAnN. Cg-Foxn1nu/CrlCrlj nude mouse assessed as inhibition of tumor weight at 240 mg/kg, ip dosed 5 times a week for 39 days relative to control; assay type: functional; details: U-251, ip, 936 h
SF-268 = assay: Antiproliferative activity against human SF268 cells after 6 days by cell counting analysis; assay type: functional; details: SF-268, 144 h
SF-295 [22] = assay: Antiproliferative activity against human SF295 cells after 6 days by cell counting analysis; assay type: functional; details: SF-295, 144 h
U-251 [23] = assay: Antitumor activity against human U251 cells xenografted in CAnN. Cg-Foxn1nu/CrlCrlj nude mouse assessed as tumor growth inhibition at 240 mg/kg, ip dosed 5 times a week for 39 days relative to control; assay type: functional; details: U-251, ip, 936 h, read-out: TGI
SNB-78 = assay: Antiproliferative activity against human SNB78 cells after 6 days by cell counting analysis; assay type: functional; details: SNB-78, 144 h
SF-539 = assay: Antiproliferative activity against human SF539 cells after 6 days by cell counting analysis; assay type: functional; details: SF-539, 144 h
SNB-75 = assay: Antiproliferative activity against human SNB75 cells after 6 days by cell counting analysis; assay type: functional; details: SNB-75, 144 h
U-251 [24] = assay: Antiproliferative activity against human U251 cells after 6 days by cell counting analysis; assay type: functional; details: U-251, 144 h
U-87 MG [25] = assay: Antiproliferative activity against human U87MG cells after 72 hrs by MTS assay; assay type: functional, cell-based, U-87MG ATCC
T98G [26] = assay: Antiproliferative activity against human T98G cells after 72 hrs by MTS assay; assay type: functional, cell-based
U373 MG = assay: Antiproliferative activity against human U373MG cells after 72 hrs by MTS assay; assay type: functional, cell-based, U-373MG ATCC
[27] = Antiproliferative activity against human PRT-HU2 cells after 72 hrs by MTS assay; assay type: functional, cell-based
U-87 MG [28] = assay: Antiproliferative activity against human U87 cells after 72 hrs by WST-1 assay; assay type: functional, cell-based, U-87MG ATCC
[29] = Antiproliferative activity against human BT74 cells after 72 hrs by WST-1 assay; assay type: functional, cell-based
[30] = Antiproliferative activity against human MGG8 cells after 72 hrs by WST-1 assay; assay type: functional, cell-based
[31] = Antiproliferative activity against human MGG4 cells after 72 hrs by WST-1 assay; assay type: functional, cell-based
A 172 = assay: Antiproliferative activity against human A172 cells after 72 hrs by WST-1 assay; assay type: functional, cell-based; details: A 172, 72 h
U-251 [32] = assay: Antiproliferative activity against human U251 cells after 72 hrs by WST-1 assay; assay type: functional, cell-based; details: U-251, 72 h

Cc1nc(=O)c2c(-c3ccccc3)c(C(=O)c3ccccc3)[nH]c2[nH]1
GI50 (U-87 MG [1]): 0.077 µM

O=C(CCCc1ccc(-c2cccnc2F)cc1)Nc1ccc(O)cc1
EC50 (U-251 [2]): 1.6 µM | EC50 (U-87 MG [3]): 1.4 µM | EC50 (U-87 MG [4]): 1.7 µM

Cc1ccc(N(CCn2nnc3c(C(N)=O)ncn3c2=O)CCn2nnc3c(C(N)=O)ncn3c2=O)cc1
IC50 (U-87 MG [5]): 14 µM | half-life [6]: 14 min | IC50 (U-118-MG): 10 µM | IC50 (U-251 [7]): 5.2 µM | Cmax [8]: 260 nM | IC50 (T98G [9]): 11.3 µM | Tmax [10]: 10 min

CCN(CC)CCCC(C)Nc1c2ccc(Cl)cc2nc2ccc(OC)cc12 (configuration not stated) [QUINACRINE]
IC50 (U-251 [11]): 5 µM

CN1CCN(C(=O)c2ccc3c(NC4CCN(Cc5ccccc5)CC4)c4ccccc4nc3c2)CC1
EC50 [12]: 4.1 µM

O[C@@H](c1cc(C(F)(F)F)nc2c(C(F)(F)F)cccc12)[C@H]1CCCCN1 [(S,R)-MEFLOQUINE]
IC50 (U-251 [11]): 10 µM

O=C(Nc1ccc([N+](=O)[O-])cc1Cl)c1cc(Cl)ccc1O [NICLOSAMIDE]
IC50 (U-87 MG [13]): 0.3 to 1.2 µM | IC50 [14]: 0.3 to 1.2 µM | IC50 (LN-229): 0.3 to 1.2 µM | IC50 (T98G [15]): 0.3 to 1.2 µM | IC50 (U138-MG): 0.3 to 1.2 µM

COc1ccc(/N=C/c2c(O)ccc3c2oc2cc(Cl)c(O)c(Cl)c23)cc1
IC50 [16]: 40 µM | IC50 (U-87 MG [17]): 25 µM

O=C1C=C(O)C(=O)C(CC2CCC3CCCCC3C2)=C1O (configuration not stated)
IC50 (U-87 MG [18]): 23.6 µM

CC1(C)OC2=C(C(=O)C(=O)c3ccccc32)[C@H](n2cc(C[Se]c3ccc(F)cc3)nn2)[C@H]1Br
IC50 (SF-295 [19]): 1.48 µM

Brc1c(Br)c(Br)c2[nH]cnc2c1Br
Activity (C6): 50%

C#CCSc1nc(Cl)nc2nc(SCC#C)n(C)c12
IC50 (SNB-19): 0.07 µg/mL (≈ 0.227 µM)

O=C1C=C(N[C@@H](Cc2ccccc2)C(=O)O)C(=O)c2ccccc21
IC50 (SF-295 [20]): 2 µM | IC50 (PBMC): 37.9 µM

Cc1oc2nc1-c1nc(co1)C(=O)N[C@@H](Cc1ccc(O)cc1)c1nc(c(C)o1)-c1nc(c(C)o1)-c1nc(co1)C(=O)N[C@@H](Cc1ccc(O)cc1)c1nc-2c(C)o1
inhibition in vivo at 240 mg/kg (U-251 [21]): 61% | GI50 (SF-268): 0.021 to 0.18 µM | GI50 (SF-295 [22]): 0.021 to 0.18 µM | inhibition in vivo at 240 mg/kg (U-251 [23]): 33% | GI50 (SNB-78): 0.021 to 0.18 µM | GI50 (SF-539): 0.021 to 0.18 µM | GI50 (SNB-75): 0.021 to 0.18 µM | GI50 (U-251 [24]): 0.021 to 0.18 µM

Clc1ccccc1CNc1ncnc2c1cnn2CC(Cl)c1ccc(Br)cc1 (configuration not stated)
IC50 (U-87 MG [25]): 14.9 µM | IC50 (T98G [26]): 12.5 µM | IC50 (U373 MG): 17.9 µM | IC50 [27]: 14.3 µM

O=C(O)CNC1=CC(=O)c2ccccc2C1=O
IC50 (SF-295 [20]): 2.4 µM | IC50 (PBMC): 23.8 µM

CCn1c(C)c(C(=O)c2ccc(C)c3ccccc23)c2ccccc21
EC50 (U-87 MG [28]): 2400 to 8600 µM | EC50 [29]: 2400 to 8600 µM | EC50 [30]: 2400 to 8600 µM | EC50 [31]: 2400 to 8600 µM | EC50 (A 172): 2400 to 8600 µM | EC50 (U-251 [32]): 2400 to 8600 µM
